Experimental data: patent publication EP2535414B1 (priority 2003, dated 2005)

Legend:
[1] = biological target: B. licheniformis strain B6 glyphosate-N-acetyltransferase (GAT), native, B6, SEQ ID NO:7 (Bacillus licheniformis, UniProt Q65LG7); test: Apparent KM for Acetyl CoA and kcat of purified GAT, mass spectrometric detection of N-acetyl glyphosate; assay type: biochemical
[2] = biological target: non-native GAT polypeptide 17-15H3 (SEQ ID NO:601), glyphosate-N-acetyltransferase (Bacillus licheniformis, UniProt Q65LG7); test: GAT activity with respect to glyphosate, aspartate and serine (Table 21), DTNB read-out; assay type: biochemical; conditions: AcCoA as acetyl donor, 25 mM Hepes, pH 6.8, 10% ethylene glycol
Procedure: (§1) GAT activity of several GAT polypeptides of the disclosure was evaluated with respect to a number of amino acid substrates. The GAT polypeptide, AcCoA and amino substrate were incubated in 25 mM Hepes, pH 6.8, 10% ethylene glycol in the wells of a 96-well polystyrene plate. After 30 minutes, the reactions were stopped by the addition of 30 µl of 10 mM 5, 5'-dithiobis-2-nitrobenzoate (DTNB) in 500 mM Tris, pH 7.5. After 2 minutes, absorbance was read at 412 nm in a Spectramax Plus plate reader (Molecular Devices, Sunnyvale, CA).
(§2) Activity with the other protein amino acids was either undetected or less than 3% that of GAT activity towards glyphosate as the substrate. […] The percentages refer to percent activity relative to activity of the GAT polypeptide towards the substrate, glyphosate. Some of the data is shown below in Table 21. Table 21: GAT activity with respect to Glyphosate, Aspartate and Serine

[3] = biological target: non-native GAT polypeptide 25-8H7 (SEQ ID NO:907), glyphosate-N-acetyltransferase (Bacillus licheniformis, UniProt Q65LG7); test: as above; assay type: biochemical; conditions: AcCoA as acetyl donor, 25 mM Hepes, pH 6.8, 10% ethylene glycol
Procedure: as §1, §2

[4] = biological target: native GAT polypeptide 401 (SEQ ID NO:6), glyphosate-N-acetyltransferase (Bacillus licheniformis, UniProt Q65LG7); test: as above; assay type: biochemical; conditions: AcCoA as acetyl donor, 25 mM Hepes, pH 6.8, 10% ethylene glycol
Procedure: as §1, §2

[5] = tested on: GAT20-30C6 (SEQ ID NO:683) variant 20-30C6 H138A; test: GAT kinetics of active-site mutants, 0 KCl, Bradford protein assay (Table 12); assay type: biochemical
Procedure: (§3) KM was calculated from the initial reaction rates obtained from concentrations of glyphosate ranging from 0.125 to 10 mM, using the Lineweaver-Burke transformation of the Michaelis-Menten equation. kcat/KM was determined by dividing the value determined for kcat by the value determined for KM.
(§4) The amino acids aspartic acid (Asp, D), histidine (His, H) and cysteine (Cys, C) are known to be associated with the active sites of various acetyltransferase enzymes. To determine if any such residues play a role in GAT activity, all D, C, and H residues of GAT20-30C6 (SEQ ID NO:683) were individually mutated to alanine (Ala, A) and the mutated enzymes assayed for N-acetylglyphosate activity. […]

[6] = biological target: GAT20-30C6 (SEQ ID NO:683) variant 20-30C6 H138R (Bacillus licheniformis, UniProt Q65LG7, form not given/H138R); test: as above; assay type: biochemical
Procedure: as §3, §4

[7] = biological target: GAT20-30C6 (SEQ ID NO:683) variant 20-30C6 H138S (Bacillus licheniformis, UniProt Q65LG7, form not given/H138S); test: as above; assay type: biochemical
Procedure: as §3, §4

[8] = biological target: GAT20-30C6 (SEQ ID NO:683) variant 20-30C6 H41A (Bacillus licheniformis, UniProt Q65LG7, form not given/H41A); test: as above; assay type: biochemical
Procedure: as §3, §4

[9] = biological target: GAT20-30C6 (SEQ ID NO:683), evolved glyphosate-N-acetyltransferase, unmodified (Bacillus licheniformis, UniProt Q65LG7); test: as above; assay type: biochemical
Procedure: as §3, §4

[10] = tested on: CC(=O)SCCNC(=O)CCNC(=O)[C@H](O)C(C)(C)COP(=O)(O)OP(=O)(O)OC[C@H]1O[C@@H](n2cnc3c(N)ncnc32)[C@H](O)[C@@H]1OP(=O)(O)O; test: purified protein, by the assay type; conditions: other: 5 mM glyphosate, 0.19 µM GAT, 5 mM morpholine pH 7.7, 50% methanol
O=C(O)CNCP(=O)(O)O = test: Apparent KM for glyphosate of purified GAT, continuous spectrophotometric assay at 235 nm; assay type: biochemical, B. licheniformis; conditions: other: saturating (200 µM) Acetyl CoA, 1 µM purified GAT, 5 mM morpholine pH 7.7, 20 % ethylene glycol, 37.0 °C
Description: Genomic DNA from B. licheniformis strain B6 was purified, partially digested with Sau3A1 and fragments of 1-10 Kb were cloned into an E. coli expression vector. A clone with a 2.5 kb insert conferred the glyphosate-N-acetyltransferase (GAT) activity on the E. coli host as determined with mass spectrometry analysis. […] Subsequent cloning of this open reading frame confirmed that it encoded the GAT enzyme. The gene encoding the GAT enzyme of B6 was transformed into E. coli strain XL1 Blue. A 10% innoculum of a saturated culture was added to Luria broth, and the culture was incubated at 37° C for 1 hr. Expression of GAT was induced by the addition of IPTG at a concentration of 1 mM. The culture was incubated a further 4 hrs, following which, cells were harvested by centrifugation and the cell pellet stored at -80°C.
Lysis of the cells was effected by the addition of 1 ml of the following buffer to 0.2 g of cells: 25 mM HEPES, pH 7.3, 100 mM KCl and 10% methanol (HKM) plus 0.1 mM EDTA, 1 mM DTT, 1 mg/ml chicken egg lysozyme, and a protease inhibitor cocktail obtained from Sigma and used according to the manufacturers recommendations. After 20 minutes incubation at room temperature (e.g., 22-25°C), lysis was completed with brief sonication. The lysate was centrifuged and the supernatant was desalted by passage through Sephadex G25 equilibrated with HKM. […]

`CC(=O)SCCNC(=O)CCNC(=O)[C@H](O)C(C)(C)COP(=O)(O)OP(=O)(O)OC[C@H]1O[C@@H](n2cnc3c(N)ncnc32)[C@H](O)[C@@H]1OP(=O)(O)O` [Acetyl CoA] gave a Km ([1]; read-out: apparent KM for Acetyl CoA, 5 mM glyphosate, 0.19 µM GAT, 5 mM morpholine pH 7.7, 50% methanol) of about 2 µM.

`N[C@@H](CO)C(=O)O` [Serine, L-serine] was tested, and the “kcat±SE” value [2] was 242 + 15.8 min^-1, the “kcat±SE” value [3] was 6.47 ± 0.308 s⁻¹ and the “kcat±SE” value [4] was 14.2 s⁻¹.

In the case of `O=C(O)CNCP(=O)(O)O` [glyphosate, N-phosphonomethylglycine], the kcat [5] is reported as under 0.00033 s⁻¹, the kcat [6] is reported as 0.738 s⁻¹ and the kcat [7] is reported as 0.0892 s⁻¹. The kcat [8] was 3.47 s⁻¹, the kcat [9] was 6.43 s⁻¹ and the kcat ([1]; calculated from Vmax at a known concentration of enzyme, acetylation of glyphosate by Acetyl CoA) was 0.1 s⁻¹. The “kcat±SE” value [2] was 1150 ± 27.6 min⁻¹, the “kcat±SE” value [3] was 24.67 ± 1.09 s⁻¹ and the “kcat±SE” value [4] was 0.0892 ± 0.000717 s⁻¹.

Work on “B. licheniformis strain B6 glyphosate-N-acetyltransferase (GAT), native, B6, SEQ ID NO:7 (Bacillus licheniformis DSM 13 = ATCC 14580)” yielded a Km [10] of 2 µM, a Km (O=C(O)CNCP(=O)(O)O) of 2900 ± 200 µM and a kcat (O=C(O)CNCP(=O)(O)O) of 0.1 s⁻¹.
